Assay results as given in article PMC7464698, “Phenolic Composition and Skin-related Properties of the Aerial Parts Extract of Different Hemerocallis Cultivars” (Antioxidants, 2020).
Values after ≈ are worked out from the molar mass of the structure shown.

What was measured:
[1] = molecular target: T1, Porcine pancreatic elastase (Sus scrofa, UniProt P00772); assay: N-Succinyl-Ala-Ala-Ala-p-nitroanilide hydrolysis, absorbance […] nm; assay type: biochemical; conditions: read-out: IC50 [μg/mL] / Elastase Inhibition (converted)
T1 construct: gene CELA1; commercial native enzyme from pancreas (Sigma-Aldrich); mature enzyme

[2] = molecular target: T2, Collagenase from Clostridium histolyticum; assay: FALGPA hydrolysis, absorbance […] nm; assay type: biochemical, Hathewaya histolytica; conditions: FALGPA 1 mM; Tricine 0.05 M pH 7.5, 0.4 M NaCl, 0.01 M CaCl2; 29 °C; 10 min preincubation; positive control
T2 construct: gene colG; commercial native enzyme preparation (Sigma-Aldrich); mixture of ColG and ColH not resolved

T1 sequence (P00772 27-266): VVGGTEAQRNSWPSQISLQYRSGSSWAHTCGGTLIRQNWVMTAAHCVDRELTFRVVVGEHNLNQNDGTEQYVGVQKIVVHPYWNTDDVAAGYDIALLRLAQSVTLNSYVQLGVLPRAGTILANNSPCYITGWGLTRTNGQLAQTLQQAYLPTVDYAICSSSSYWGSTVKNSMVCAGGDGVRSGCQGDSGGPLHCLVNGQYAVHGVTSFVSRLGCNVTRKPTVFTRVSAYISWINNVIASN

For `O=C(O[C@@H]1Cc2c(O)cc(O)cc2O[C@@H]1c1cc(O)c(O)c(O)c1)c1cc(O)c(O)c(O)c1` [EGCG], the IC50 [1] was 136 µM and the “IC50 [μg/mL] / Collagenase Inhibition” value [2] was 34.9 ± 0.4 µg/mL (≈ 76.1 µM).
